{"source": "patent US4720458A", "about": "“Heat sensitive bacterial alkaline phosphatase” (priority 1983, dated 1988)", "key": {"[1]": {"test_system": "HK-47 alkaline phosphatase (APase) from Antarctic psychrophilic marine bacterium strain HK-47 (ATCC 39469)", "description": "APase activity was routinely assayed at 25° C. for 30 min in 100 μl reaction mixture containing 2 mM p-nitrophenyl phosphate, 5 mM CaCl2, 0.1M CAPS-NaOH buffer pH 9.5. The reaction was stopped by adding 300 μl of 13% (W/V) EDTA-1N NaOH to the reaction mixture. Control mixtures were similarly prepared, except that 13% EDTA-1N NaOH was added before the enzyme activity was assayed. APase activity was measured as the difference in absorbance at 410 nm between samples and control. One unit of APase activity is expressed as 1 micromole of p-nitrophenol (pNp) liberated per minute at 25° C. under the assay conditions. Protein concentration was determined by the Bio-Rad protein assay kit. Bovine serum albumin (BSA) was used as the standard. Homogeneity of the APase was examined by polyacrylamide gel electrophoresis and Bio-Rad (Bio-Rad laboratories, Richmond, CA.) silver stain."}, "[2]": {"biological_target": "E. coli alkaline phosphatase (APase) (Escherichia coli, UniProt P00634)", "sequence (P00634 22-471)": "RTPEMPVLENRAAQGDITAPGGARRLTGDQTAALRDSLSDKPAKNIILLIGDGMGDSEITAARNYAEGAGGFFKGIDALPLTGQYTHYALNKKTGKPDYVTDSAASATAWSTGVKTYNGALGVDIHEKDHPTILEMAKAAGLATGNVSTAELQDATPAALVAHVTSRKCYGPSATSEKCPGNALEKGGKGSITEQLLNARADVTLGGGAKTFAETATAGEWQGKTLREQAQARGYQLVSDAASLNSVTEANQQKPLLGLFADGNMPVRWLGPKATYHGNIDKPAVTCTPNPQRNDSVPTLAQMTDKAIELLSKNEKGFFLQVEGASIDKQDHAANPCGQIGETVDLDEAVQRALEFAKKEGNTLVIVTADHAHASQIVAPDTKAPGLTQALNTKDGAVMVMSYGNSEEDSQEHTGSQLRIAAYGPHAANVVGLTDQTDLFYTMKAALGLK", "assay": "E. coli APase inactivation by EDTA (comparison enzyme)", "type": "biochemical", "conditions": "read-out: EDTA concentration giving 50% inactivation of E. coli APase"}}, "data": [{"molecule": "O=C(O)CN(CCN(CC(=O)O)CC(=O)O)CC(=O)O", "note": "[EDTA]", "values": [{"measurement": "inhibition of HK-47 APase activity", "setting": "[1]; at 1 mM EDTA", "value": "~100", "unit": "%"}, {"measurement": "sensitivity to EDTA of HK-47 APase relative to E. coli APase", "setting": "[1]; ratio of the 50% inhibition concentrations, E. coli vs HK-47", "value": 100, "unit": "fold"}, {"measurement": "IC50", "setting": "[1]; read-out: EDTA concentration inhibiting HK-47 APase activity 50%, HK-47 APase, 'as little as'", "value": 0.1, "unit": "mM"}, {"measurement": "IC50", "setting": "[2]", "value": 10, "unit": "mM"}]}]}
